One assay has as its target BCL2 (Homo sapiens, UniProt P10415). The experiment in a line: BCL2 affinity assay (competition binding, qPCR readout). The settings on record: recombinant BCL2, 11-point 3-fold dilution series. How it is done:
(§1) Recombinant MCL1, BCL2 and BCXL proteins were prepared in either an E. coli host derived from the BL21 strain or in HEK-293 cells. The recombinant proteins were subsequently tagged with DNA for qPCR detection. Streptavidin-coated magnetic beads were treated for 30 minutes at room temperature with the respective biotinylated peptide ligands for each recombinant protein to generate affinity resins for the assays. The liganded beads were blocked with excess biotin and washed with blocking buffer (SeaBlock (Pierce), 1% BSA, 0.05% Tween 20, 1 mM DTT) to remove unbound ligand and to reduce nonspecific binding. Binding reactions were assembled by combining recombinant protein, liganded affinity beads, and test compounds in 1× binding buffer (20% SeaBlock, 0.17×PBS, 0.05% Tween 20, 6 mM DTT). Test compounds were prepared as 111X stocks in 100% DMSO. The compounds were then diluted directly into the assays such that the final concentration of DMSO was 0.9%. The assay plates were incubated at room temperature with shaking for 1 hour and the affinity beads were washed with wash buffer (1×PBS, 0.05% Tween 20). The beads were then re-suspended in elution buffer (1×PBS, 0.05% Tween 20, 0.5 μM non-biotinylated affinity ligand) and incubated at room temperature with shaking for 30 minutes. The recombinant protein concentration in the eluates was measured by qPCR. Kds were determined using an 11-point 3-fold compound dilution series with three DMSO control points.
(In general: Real-time PCR tracks product formation cycle by cycle.)

Assay [1] concerns drug-resistant cell lines of Table 3. As to the kind of experiment: Cell line growth retardation assay, resistant cohort. The settings on record: Homo sapiens, 144 h; arithmetic mean of IC50s over the resistant cohort of Table 3, 6 days growth; read-out: AvgRes IC50. It is filed as cell-based, Human. In outline:
(§2)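 Over 6 days of treatment at six concentrations (0.0032–10 μM), given after a 24 h post-seeding rest, population doublings were counted by imaging against a pre-dose baseline and compared with vehicle. Per-line IC50 values came from dose-response fits; cohort averages used arithmetic means, with sensitive/resistant grouping based on response to reference MCL1 inhibitors.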

Another assay deals with BCLXL (Homo sapiens, UniProt Q07817). The experiment in a line: BCLXL affinity assay (competition binding, qPCR readout). The settings on record: recombinant BCLXL, 11-point 3-fold dilution series. How it is done:
as §1

The next assay addresses MCL1 (Homo sapiens, UniProt Q07820). The experiment in a line: MCL1 affinity assay (competition binding, qPCR readout). The settings on record: recombinant MCL1, 11-point 3-fold dilution series. In outline:
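Kds derived from an 11-point 3-fold compound series measured by qPCR of protein eluted from ligand beads. Recombinant, DNA-tagged protein from E. coli or HEK-293 was mixed with compound and peptide-liganded beads in SeaBlock/PBS/Tween/DTT buffer for 1 hour at room temperature (0.9% DMSO).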

For assay [2], the system named is drug-sensitive cell lines of Table 3. As to the kind of experiment: Cell line growth retardation assay, sensitive cohort. It is filed as cell-based, Human. The note with it: for IC50: Homo sapiens, 144 h, arithmetic mean of IC50s over the sensitive cohort of Table 3, 6 days growth, read-out: AvgSen IC50; for Fold Diff: average IC50 of resistant cohort divided by average IC50 of sensitive cohort. Put shortly:
as §2

BCLXL, sequence (Q07817 whole entry): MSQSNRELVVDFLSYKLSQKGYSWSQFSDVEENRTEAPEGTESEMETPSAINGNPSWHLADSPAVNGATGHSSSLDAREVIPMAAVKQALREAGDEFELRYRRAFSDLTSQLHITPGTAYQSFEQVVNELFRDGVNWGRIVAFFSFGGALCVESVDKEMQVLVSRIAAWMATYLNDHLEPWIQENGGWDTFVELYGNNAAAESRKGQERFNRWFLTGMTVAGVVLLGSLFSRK
MCL1, sequence (Q07820 whole entry): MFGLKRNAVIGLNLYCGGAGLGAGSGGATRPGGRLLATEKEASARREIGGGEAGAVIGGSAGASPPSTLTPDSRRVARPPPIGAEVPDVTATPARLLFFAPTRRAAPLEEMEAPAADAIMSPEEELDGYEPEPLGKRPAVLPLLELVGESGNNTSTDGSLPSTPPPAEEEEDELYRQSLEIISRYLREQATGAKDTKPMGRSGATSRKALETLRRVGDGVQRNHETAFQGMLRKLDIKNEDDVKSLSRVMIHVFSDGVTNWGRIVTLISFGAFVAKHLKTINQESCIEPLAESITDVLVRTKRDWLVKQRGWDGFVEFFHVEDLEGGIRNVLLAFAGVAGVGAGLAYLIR
BCL2, sequence (P10415 whole entry): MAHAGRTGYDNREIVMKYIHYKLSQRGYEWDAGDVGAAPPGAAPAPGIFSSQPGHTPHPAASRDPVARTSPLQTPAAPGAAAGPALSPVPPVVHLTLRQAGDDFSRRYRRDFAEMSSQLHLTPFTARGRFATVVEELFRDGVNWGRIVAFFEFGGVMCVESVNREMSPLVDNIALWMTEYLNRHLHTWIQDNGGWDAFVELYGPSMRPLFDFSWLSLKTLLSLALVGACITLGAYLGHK

Regarding `Cc1c(-c2c(-c3cccc4ccccc34)ncc3snc(O[C@H](Cc4ccccc4OCc4ccnn4CC(F)(F)F)C(=O)O)c23)ccc(OCCN2CCN(C)CC2)c1Cl` (atropisomer, axis not shown) [Compound 7], the Kd at BCL2, at BCLXL and on MCL1 was more than 1500 nM throughout. For the same compound, the IC50 in assay [1] and in assay [2] was more than 5000 nM in each case. In assay [2], the “Fold Diff” value is on record as “− (“−” represents a fold difference less than 10)”.
With `Cc1c(-c2c(-c3cnn(C)c3)ncc3snc(O[C@H](Cc4ccccc4OCc4ccnn4CC(F)(F)F)C(=O)O)c23)ccc(OCCN2CCN(C)CC2)c1Cl` (atropisomer, axis not shown) [Compound 28], the figures for the equilibrium dissociation constant (Kd) on BCL2, at BCLXL and on MCL1 were more than 1500 nM, more than 1500 nM and 501 to 1500 nM, respectively.
Regarding `COc1cccc(-c2ncc3snc(O[C@H](Cc4ccccc4OCc4ccnc(-c5ccccc5OC)n4)C(=O)O)c3c2-c2ccc(OC[C@H]3CCCN3C)c(Cl)c2C)c1` (atropisomer, axis not shown) [Compound 48], the equilibrium dissociation constant (Kd) on BCL2 was more than 1500 nM; on BCLXL, more than 1500 nM; on MCL1 it was not above 100 nM.
`Cc1c(-c2c(C3CCC3)ncc3snc(O[C@H](Cc4ccccc4OCc4ccnc(-c5cccc(N6CCOCC6)c5)n4)C(=O)O)c23)ccc(OCCN2CCN(C)CC2)c1Cl` (atropisomer, axis not shown) [Compound 112]: the IC50 in assay [1] is more than 5000 nM. Moreover, at MCL1, the dissociation constant Kd is not above 100 nM. In addition, in assay [2], the IC50 was not above 1000 nM and the “Fold Diff” value is on record as “+ (“+” represents a fold difference of 10 or more)”.
The like results for `Cc1c(-c2c(C3CCC3)ncc3snc(O[C@H](Cc4ccccc4OCc4ccnc(-c5ccc(OCc6ccccc6)nc5)n4)C(=O)O)c23)ccc(OCCN2CCN(C)CC2)c1Cl` (atropisomer, axis not shown) [Compound 113] were, in that order, more than 5000 nM, more than 1500 nM, more than 5000 nM and “− (“−” represents a fold difference less than 10)”.
The matching figures for `COc1cccc(Oc2ccc(-c3nccc(COc4ccccc4C[C@@H](Oc4nsc5cnc(C6CCC6)c(-c6ccc(OCCN7CCN(C)CC7)c(Cl)c6C)c45)C(=O)O)n3)cn2)c1` (atropisomer, axis not shown) [Compound 114]: more than 5000 nM, 101 to 500 nM, 1000 to 5000 nM and “− (“−” represents a fold difference less than 10)”.
Take `Cc1cc(-c2nccc(COc3ccccc3C[C@@H](Oc3nsc4cnc(C5CCC5)c(-c5ccc(OCCN6CCN(C)CC6)c(Cl)c5C)c34)C(=O)O)n2)ccc1S(=O)(=O)N1CCCC1` (atropisomer, axis not shown) [Compound 115]: in assay [1], the half-inhibitory concentration (IC50) was more than 5000 nM. Further, the dissociation constant (Kd) at MCL1 is 101 to 500 nM. Besides, in assay [2], the 50% inhibitory concentration (IC50) is 1000 to 5000 nM and the “Fold Diff” value is reported as “− (“−” represents a fold difference less than 10)”.
The matching figures for `Cc1cc(C#N)ccc1-c1nccc(COc2ccccc2C[C@@H](Oc2nsc3cnc(C4CCC4)c(-c4ccc(OCCN5CCN(C)CC5)c(Cl)c4C)c23)C(=O)O)n1` (atropisomer, axis not shown) [Compound 116]: more than 5000 nM, not above 100 nM, not above 1000 nM and “+ (“+” represents a fold difference of 10 or more)”.
Consider `Cc1c(-c2c(C3CCC3)ncc3snc(O[C@H](Cc4ccccc4OCc4ccnc(-c5cccc(OC(F)(F)F)c5)n4)C(=O)O)c23)ccc(OCCN2CCN(C)CC2)c1Cl` (atropisomer, axis not shown) [Compound 117], for which the IC50 in assay [1] was more than 5000 nM; in assay [2] it was 1000 to 5000 nM. Also, on MCL1, the Kd lay in the range of 101 to 500 nM. The “Fold Diff” value in assay [2] is given as “− (“−” represents a fold difference less than 10)”.
As to `Cc1c(-c2c(C3CCC3)ncc3snc(O[C@H](Cc4ccccc4OCc4ccnc(-c5cccc(S(C)(=O)=O)c5)n4)C(=O)O)c23)ccc(OCCN2CCN(C)CC2)c1Cl` (atropisomer, axis not shown) [Compound 118], the IC50 in assay [1] was more than 5000 nM. At MCL1, the Kd was not above 100 nM. In assay [2], the half-maximal inhibitory concentration (IC50) was in the range of 1000 to 5000 nM and the “Fold Diff” value was “− (“−” represents a fold difference less than 10)”.
As to `CC(=O)N1CCN(c2ccc(-c3nccc(COc4ccccc4C[C@@H](Oc4nsc5cnc(C6CCC6)c(-c6ccc(OCCN7CCN(C)CC7)c(Cl)c6C)c45)C(=O)O)n3)cc2)CC1` (atropisomer, axis not shown) [Compound 119], the half-maximal inhibitory concentration (IC50) in assay [1] was more than 5000 nM. Besides, the Kd on MCL1 was not above 100 nM. For the same compound, in assay [2], the IC50 was not above 1000 nM and the “Fold Diff” value is “+ (“+” represents a fold difference of 10 or more)”.
For the compound `COc1cccc(-c2ncc3snc(O[C@H](Cc4ccccc4OCc4ccnc(OCC(F)F)n4)C(=O)O)c3c2-c2ccc(OCCN3CCN(C)CC3)c(Cl)c2C)c1` [Compound 58], the IC50 in assay [1] was more than 5000 nM. Further, the dissociation constant Kd at MCL1 is not above 100 nM. In assay [2], the concentration for half-maximal inhibition (IC50) is not above 1000 nM and the “Fold Diff” value is reported as “+ (“+” represents a fold difference of 10 or more)”.
Regarding `COc1cccc(-c2ncc3snc(O[C@H](Cc4ccccc4OCc4ccnc(OCCCC(F)(F)F)n4)C(=O)O)c3c2-c2ccc(OCCN3CCN(C)CC3)c(Cl)c2C)c1` [Compound 59], in assay [1], the concentration for half-maximal inhibition (IC50) is more than 5000 nM. Moreover, on MCL1, the Kd lay in the range of 101 to 500 nM. Further, in assay [2], the IC50 is 1000 to 5000 nM and the “Fold Diff” value is listed as “− (“−” represents a fold difference less than 10)”.
Consider `Cc1c(-c2cc(-c3nn(C)c4cc(Cl)ccc34)cc3snc(O[C@H](Cc4ccccc4OCc4ccnn4CC(F)(F)F)C(=O)O)c23)ccc(OCCN2CCN(C)CC2)c1Cl` [Compound 94], for which, in assay [1], the IC50 is more than 5000 nM. Further, at MCL1, the Kd is more than 1500 nM. Also, in assay [2], the half-inhibitory concentration (IC50) was more than 5000 nM and the “Fold Diff” value is listed as “− (“−” represents a fold difference less than 10)”.
Regarding `Cc1c(-c2cc(-c3nccc4cc(Cl)ccc34)cc3snc(O[C@H](Cc4ccccc4OCc4ccnn4CC(F)(F)F)C(=O)O)c23)ccc(OCCN2CCN(C)CC2)c1Cl` [Compound 95], the IC50 in assay [1] is more than 5000 nM. The Kd at MCL1 was more than 1500 nM. Besides, in assay [2], the half-inhibitory concentration (IC50) was more than 5000 nM and the “Fold Diff” value was “− (“−” represents a fold difference less than 10)”.
For the compound `Cn1nc(-c2cc(CC3CCC3)c3c(O[C@H](Cc4ccccc4OCc4ccnn4CC(F)(F)F)C(=O)O)nsc3c2)c2ccc(Cl)cc21` [Compound 96], the IC50 in assay [1] is more than 5000 nM. Further, the dissociation constant (Kd) at MCL1 was more than 1500 nM. Moreover, in assay [2], the concentration for half-maximal inhibition (IC50) is more than 5000 nM and the “Fold Diff” value was “− (“−” represents a fold difference less than 10)”.
Consider `COc1ccccc1-c1nccc(COc2ccccc2C[C@@H](Oc2nsc3cc(-c4nn(C)c5cc(Cl)ccc45)cc(-c4ccc(OCCN5CCN(C)CC5)c(Cl)c4C)c23)C(=O)O)n1` [Compound 97], for which the IC50 is more than 5000 nM in assay [1] and 1000 to 5000 nM in assay [2]. Further, the Kd on MCL1 was in the range of 501 to 1500 nM. Besides, the “Fold Diff” value in assay [2] is “− (“−” represents a fold difference less than 10)”.
As for `Cc1c(-c2cc(-n3c(=O)n(C)c4cc(Cl)ccc43)cc3snc(O[C@H](Cc4ccccc4OCc4ccnn4CC(F)(F)F)C(=O)O)c23)ccc(OCCN2CCN(C)CC2)c1Cl` [Compound 99], the half-inhibitory concentration (IC50) in assay [1] is more than 5000 nM. Also, on MCL1, the equilibrium dissociation constant (Kd) was more than 1500 nM. Besides, in assay [2], the half-inhibitory concentration (IC50) was more than 5000 nM and the “Fold Diff” value was “− (“−” represents a fold difference less than 10)”.
In the case of `Cc1c(-c2cc(-n3c(C)c(Cl)c4cc(Cl)cnc43)cc3snc(O[C@H](Cc4ccccc4OCc4ccnn4CC(F)(F)F)C(=O)O)c23)ccc(OCCN2CCN(C)CC2)c1Cl` [Compound 100], the IC50 in assay [1] was more than 5000 nM. Also, the dissociation constant (Kd) at MCL1 lay in the range of 501 to 1500 nM. Moreover, in assay [2], the half-maximal inhibitory concentration (IC50) was 1000 to 5000 nM and the “Fold Diff” value was “− (“−” represents a fold difference less than 10)”.
In the case of `Cc1c(Cl)c2cc(Cl)cnc2n1-c1cc(CC2CCC2)c2c(O[C@H](Cc3ccccc3OCc3ccnn3CC(F)(F)F)C(=O)O)nsc2c1` [Compound 101], the IC50 in assay [1] is more than 5000 nM. Further, at MCL1, the equilibrium dissociation constant (Kd) was more than 1500 nM. Besides, in assay [2], the IC50 was more than 5000 nM and the “Fold Diff” value was “− (“−” represents a fold difference less than 10)”.

As a reminder, the Kd is the concentration at which binding is half-saturated. The term IC50 denotes the concentration at which inhibition is half-maximal.
